Source: patent US10730884B2, “Substituted indole compound derivatives as dengue viral replication inhibitors” (Janssen Pharmaceuticals, Inc., priority 2016, dated 2020)
pEC50: −log10 of the molar value. Read-outs that look alike come from different tables or passages of the source.

Assays:
DENV-2 16681 strain = test: DENV-2 antiviral assay (eGFP-labeled virus, Vero cells); format: cell-based, Dengue virus; details: for pEC50: DENV-2 16681 eGFP, Vero cells, MOI 0.5, 3 days; for SI: SI=CC50/EC50, DENV-2 antiviral assay
Description: The antiviral activity of all the compounds of the invention was tested against the DENV-2 16681 strain which was labeled with enhanced green fluorescent protein (eGPF). The culture medium consists of minimal essential medium supplemented with 2% of heat-inactivated fetal calf serum, 0.04% gentamycin (50 mg/mL) and 2 mM of L-glutamine. Vero cells, obtained from ECACC, were suspended in culture medium and 25 μL was added to 384-well plates (2500 cells/well), which already contain the antiviral compounds. Typically, these plates contain a 5-fold serial dilution of 9 dilution steps of the test compound at 200 times the final concentration in 100% DMSO (200 nL). […] Finally, each plate contains wells which are assigned as virus controls (containing cells and virus in the absence of compound), cell controls (containing cells in the absence of virus and compound) and medium controls (containing medium in the absence of cells, virus and compounds). To the wells assigned as medium control, 25 μL of culture medium was added instead of Vero cells. Once the cells were added to the plates, the plates were incubated for 30 minutes at room temperature to allow the cells to distribute evenly within the wells. Next, the plates were incubated in a fully humidified incubator (37° C., 5% CO2) until the next day. Then, DENV-2 strain 16681, labeled with eGFP, was added at a multiplicity of infection (MOI) of 0.5. Therefore, 15 μL of virus suspension was added to all the wells containing test compound and to the wells assigned as virus control. In parallel, 15 μL of culture medium was added to the medium and cell controls. Next, the plates were incubated for 3 days in a fully humidified incubator (37° C., 5% CO2). At the day of the read out, the eGFP fluorescence was measured using an automated fluorescence microscope at 488 nm (blue laser). Using an in-house LIMS system, inhibition dose response curves for each compound were calculated and the half maximal effective concentration (EC50) was determined. Therefore, the percent inhibition (I) for every test concentration is calculated using the following formula: I=100*([…])/(SVC−SCC); ST, SCC and SVC are the amount of eGFP signal in the test compound, cell control and virus control wells, respectively. The EC50 represents the concentration of a compound at which the virus replication is inhibited with 50%, as measured by a 50% reduction of the eGFP fluorescent intensity compared to the virus control. The EC50 is calculated using linear interpolation (Table 1).

DENV-1 strain TC974#666 = test: Tetravalent RT-qPCR assay, serotype 1; format: cell-based, Dengue virus; details: for pEC50: Dengue virus, DENV1, Vero, 72 h, RT-qPCR serotype 1 TC974#666, Protocol A, Vero cells, day 3; for SI: RT-qPCR serotype 1 TC974#666
Description: (§1) The antiviral activity of the compounds of the invention was tested against DENV-1 strain TC974#666 (NCPV), DENV-2 strain 16681, DENV-3 strain H87 (NCPV) and DENV-4 strain H241 (NCPV) in a RT-qPCR assay. Therefore, Vero cells were infected with either DENV-1, or -2, or -3, or -4 in the presence or absence of test compounds. At day 3 post-infection, the cells were lysed and cell lysates were used to prepare cDNA of both a viral target (the 3′UTR of DENV; Table 2) and a cellular reference gene (β-actin, Table 2). Subsequently, a duplex real time PCR was performed on a Lightcycler480 instrument. The generated Cp value is inversely proportional to the amount of RNA expression of these targets. Inhibition of DENV replication by a test compound result in a shift of Cp's for the 3′UTR gene. On the other hand, if a test compound is toxic to the cells, a similar effect on β-actin expression will be observed. The comparative ΔΔCp method is used to calculate EC50, which is based on the relative gene expression of the target gene (3′UTR) normalized with the cellular housekeeping gene (β-actin). In addition, CC50 values are determined based on the Cp values acquired for the housekeeping gene β-actin.
(§2) The culture medium consisted of minimal essential medium supplemented with 2% of heat-inactivated fetal calf serum, 0.04% gentamycin (50 mg/mL) and 2 mM of L-glutamine. Vero cells, obtained from ECACC, were suspended in culture medium and 75 μL/well was added in 96-well plates (10000 cells/well), which already contain the antiviral compounds. […] In addition, each plate contains wells which are assigned as virus controls (containing cells and virus in the absence of compound) and cell controls (containing cells in the absence of virus and compound). Once the cells were added in the plates, the plates were incubated in a fully humidified incubator (37° C., 5% CO2) until the next day. Dengue viruses serotype-1, 2, 3 and 4 were diluted in order to obtain a Cp of ˜22-24 in the assay. Therefore, 25 μL of virus suspension was added to all the wells containing test compound and to the wells assigned as virus control. In parallel, 25 μL of culture medium was added to the cell controls. Next, the plates were incubated for 3 days in a fully humidified incubator (37° C., 5% CO2). After 3 days, the supernatant was removed from the wells and the cells were washed twice with ice-cold PBS (˜100 μL). The cell pellets within the 96-well plates were stored at −80° C. for at least 1 day. Next, RNA was extracted using the Cells-to-CT™ lysis kit, according to the manufacturer's guideline (Life Technologies). The cell lysates can be stored at −80° C. or immediately used in the reverse transcription step.
(§3) In preparation of the reverse transcription step, mix A (table 3A) was prepared and 7.57 μL/well was dispensed in a 96-well plate. After addition of 5 μL of the cell lysates, a five minute denaturation step at 75° C. was performed (table 3B). Afterwards, 7.43 μL of mix B was added (table 3C) and the reverse transcription step was initiated (table 3D) to generate cDNA.
(§4) Finally, a RT-qPCR mix was prepared, mix C (table 4A), and 22.02 μL/well was dispensed in 96-well LightCycler qPCR plates to which 3 μL of cDNA was added and the qPCR was performed according to the conditions in table 4B on a LightCycler 480.
(§5) Using the LightCycler software and an in-house LIMS system, dose response curves for each compound were calculated and the half maximal effective concentration (EC50) and the half maximal cytotoxic concentration (CC50) were determined (Tables 5-8).

DENV-2 strain 16681 = test: Tetravalent RT-qPCR assay, serotype 2; format: cell-based, Dengue virus; details: for pEC50: Dengue virus, DENV2, Vero, 72 h, RT-qPCR serotype 2 16681, Protocol A, Vero cells, day 3; for SI: RT-qPCR serotype 2 16681
Description: as §1, §2, §3, §4, §5

DENV-3 strain H87 = test: Tetravalent RT-qPCR assay, serotype 3; format: cell-based, Dengue virus; details: for pEC50: Dengue virus, DENV3, Vero, 72 h, RT-qPCR serotype 3 H87, Protocol A, Vero cells, day 3; for SI: RT-qPCR serotype 3 H87
Description: as §1, §2, §3, §4, §5

DENV-4 strain H241 = test: Tetravalent RT-qPCR assay, serotype 4; format: cell-based, Dengue virus; details: for pEC50: Dengue virus, DENV4, Vero, 72 h, RT-qPCR serotype 4 H241, Protocol A, Vero cells, day 3; for SI: RT-qPCR serotype 4 H241
Description: as §1, §2, §3, §4, §5

Vero cells = details: African green monkey
in vitro [1] = format: cell-based; details: African green monkey, CC50
Description: as §1, §2, §5

in vitro [2] = details: African green monkey

Row | Structure (SMILES) | pEC50 (DENV-2 16681 strain) | SI (DENV-2 16681 strain) | pEC50 (DENV-1 strain TC974#666; read-out: EC50) | SI (DENV-1 strain TC974#666) | pEC50 (DENV-2 strain 16681) | SI (DENV-2 strain 16681) | pEC50 (DENV-3 strain H87; read-out: EC50) | SI (DENV-3 strain H87) | pEC50 (DENV-4 strain H241) | SI (DENV-4 strain H241) | CC50 (Vero cells) [nM] | CC50 at 3 days (in vitro [1]) [nM] | CC50 (in vitro [2]) [nM] | pEC50 (DENV-1 strain TC974#666) | pEC50 (DENV-3 strain H87)
1 | COc1cc(NC(C(=O)c2c[nH]c3cc(F)c(C)cc23)c2ccc(F)cc2OC)cc(OCCO)c1 (single isomer, unassigned) [Compound 3A] | 8.96 | 3230 | 8.40 | 748 | 8.80 | 1610 | 7.66 | 42 | 6.68 | 11 | 3800 | – | – | – | –
2 | COc1cc(NC(C(=O)c2c[nH]c3cc(F)c(C)cc23)c2ccc(F)cc2OC)cc(OCCO)c1 (single isomer, unassigned) [Compound 3B] | 6.60 | 31 | – | – | – | – | – | – | – | – | 8000 | – | – | – | –
3 | COc1cc(NC(C(=O)c2c[nH]c3ccc(C)cc23)c2ccc(F)cc2OC)cc(OCCO)c1 (single isomer, unassigned) [Compound 5A] | 8.60 | 2910 | 8.15 | 1430 | 8.57 | 4290 | 7.30 | 207 | 6.57 | 21 | – | 10000 | 5800 | – | –
4 | COc1cc(NC(C(=O)c2c[nH]c3ccc(C)cc23)c2ccc(F)cc2OC)cc(OCCO)c1 (single isomer, unassigned) [Compound 5B] | 6.09 | 14 | – | – | – | – | – | – | – | – | 11000 | – | – | – | –
5 | COc1cc(NC(C(=O)c2c[nH]c3cc4c(cc23)CCO4)c2ccc(F)cc2OC)cc(OCCO)c1 (single isomer, unassigned) [Compound 7B] | 6.20 | 19 | – | – | – | – | – | – | – | – | 12000 | – | – | – | –
6 | COc1cc(NC(C(=O)c2c[nH]c3c4c(ccc23)OCC4)c2ccc(F)cc2OC)cc(OCCO)c1 (single isomer, unassigned) [Compound 8B] | 6.09 | 14 | – | – | – | – | – | – | – | – | 12000 | – | – | – | –
7 | COc1cc(NC(C(=O)c2c[nH]c3cc(F)c(C)cc23)c2ccc(Cl)cc2OC)cc(OCCO)c1 (single isomer, unassigned) [Compound 9B] | 9.36 | 7480 | 8.85 | 1700 | 9.16 | 5540 | 7.80 | 234 | 7.04 | 28 | – | 3000 | – | – | –
8 | COc1cc(NC(C(=O)c2c[nH]c3cc4c(cc23)CCO4)c2ccc(Cl)cc2OC)cc(OCCO)c1 (single isomer, unassigned) [Compound 10B] | 9.49 | 19700 | 8.49 | 3340 | 9.40 | 23600 | 7.66 | 316 | 6.96 | >29 | 9500 | – | – | – | –
9 | COc1cc(NC(C(=O)c2c[nH]c3c4c(ccc23)OCC4)c2ccc(Cl)cc2OC)cc(OCCO)c1 (single isomer, unassigned) [Compound 11B] | 6.77 | 49 | – | – | – | – | – | – | – | – | 8200 | – | – | – | –
10 | [2H]C(Nc1cc(OC)cc(OCCO)c1)(C(=O)c1c[nH]c2cc(F)ccc12)c1ccc(Cl)cc1OC (single isomer, unassigned) [Compound 13B-D] | 6.77 | 54 | – | – | – | – | – | – | – | – | 9600 | – | – | – | –
11 | COc1cc(NC(C(=O)c2c[nH]c3cc(F)ccc23)c2ccc(Cl)cc2OC)cc(OCCOP(=O)(O)O)c1 (single isomer, unassigned) [Compound 13B-P] | 7.89 | 822 | – | – | – | – | – | – | – | – | 11000 | – | – | – | –
12 | [2H]C(Nc1cc(OC)cc(OCCO)c1)(C(=O)c1c[nH]c2cc(OC)c(C)cc12)c1ccc(Cl)cc1OC (single isomer, unassigned) [Compound 14A-D] | 9.59 | 17600 | – | 1070 | 9.54 | >11900 | – | >261 | 7.13 | >46 | – | > 2300 | 3600 | 8.52 | 8.01
13 | [2H]C(Nc1cc(OC)cc(OCCO)c1)(C(=O)c1c[nH]c2cc(OC)c(C)cc12)c1ccc(Cl)cc1OC (single isomer, unassigned) [Compound 14B-D] | 6.96 | 52 | – | – | – | – | – | – | – | – | 6000 | – | – | – | –
14 | COc1cc(NC(C(=O)c2c[nH]c3ccc(S(F)(F)(F)(F)F)cc23)c2ccc(Cl)cc2OC)cc(OCCO)c1 (single isomer, unassigned) [Compound 15A] | 9.77 | 16000 | 9.89 | 16100 | 9.96 | 21200 | 8.36 | 361 | 7.85 | 84 | 2700 | – | – | – | –
15 | COc1cc(NC(C(=O)c2c[nH]c3ccc(S(F)(F)(F)(F)F)cc23)c2ccc(Cl)cc2OC)cc(OCCO)c1 (single isomer, unassigned) [Compound 15B] | 7.89 | 460 | – | – | – | – | – | – | – | – | 5800 | – | – | – | –
